The results in this text go back to PMC11019550, “Potent Inhibition of E. coli DXP Synthase by a gem-Diaryl Bisubstrate Analog” (ACS Infectious Diseases, 2024).

The test concerns the target T1, R478A EcDXPS (Escherichia coli, UniProt P77488, R478A).
T1 construct: made in house
The test is described as follows: Circular dichroism titration (PLThDP formation, apparent KD) on R478A EcDXPS. The test is classed as binding. As for the experimental part: CD titrations of 8 and 10 onto WT, R99A, and R478A EcDXPS variants were conducted at 25 °C under aerobic conditions in 1.5 mL solutions containing 30 μM EcDXPS in 50 mM HEPES pH 8, 100 mM NaCl, 1 mM MgCl2, and 0.2 mM ThDP. Scans were obtained from 280 to 400 nm with a 0.5 s averaging time and 1 nm step following a titration of inhibitor (8: 0.25–30 μM on WT, 0.5–30 μM on R99A and R478A; 10 2.5–30 μM on WT, R99A, and R478A), with a 5 min preincubation of inhibitor with DXPS prior to scanning. […] The CD signals at 294 nm determined from the difference spectra obtained by subtracting the signal of E-ThDP at 294 nm were plotted as a function of [inhibitor] and fit to (1) the quadratic equation described in eq 2 (8 on WT DXPS), where E is the concentration of DXPS taking into account stoichiometric binding and CDmax is the maximal CD signal, or (2) a one-site specific binding curve (all other experiments) using GraphPad Prism Version 9 to calculate an apparent KD. Experiments were conducted in triplicate and the standard error was calculated. [drawing 2] 2
At the conclusion of the titration described above, the CD signal at 313 nm (previously characterized for LThDP) was recorded. Pyruvate (1 mM) was then added to the mixture, and a CD scan of the resulting solution was conducted as described above, to detect shifts in the CD spectrum that may correlate to LThDP formation. Experiments were conducted in triplicate.

Regarding `CC(=O)P(=O)(O)OCCc1cn(C(Cc2ccccc2)(Cc2ccccc2)C(=O)O)nn1` [Compound 8], the Kd is 11 ± 4 µM. Besides, the “change in PLThDP CD signal upon addition of pyruvate” value (R478A-PLThDP complex) is recorded as “shift in the CD profile toward the characteristic LThDP signal”.
